{"source": "patent US20260242330A1", "about": "“USE OF AN AMANTADINE MONONITRATE COMPOUND IN MANUFACTURE OF A MEDICAMENT FOR THE PREVENTION AND TREATMENT OF HYPERTENSION” (GUANGZHOU MAGPIE PHARMACEUTICALS CO., LTD., priority 2022, published 2026)", "key": {"[1]": {"tested_on": "blood pressure in subjects with a DP≥90 mmHg", "test": "Effect of MN-08 on blood pressure in subjects with a DP≥90 mmHg", "type": "in vivo, human", "conditions": "single or multiple administration as in Example 2", "description": "From this, it can be seen that making diastolic pressure drop more than systolic pressure drop is the characteristic of MN-08."}, "[2]": {"tested_on": "blood pressure of subjects", "test": "Effect of single administration of MN-08 on blood pressure of subjects (clinical trial)", "type": "in vivo, human", "description": "All subjects in the following embodiments have signed informed consent forms, which comply with medical ethics regulations. According to the relevant provisions of Chinese Guidelines for the Prevention and Treatment of Hypertension (2018 Revision), the values measured for hypertension are the average blood pressure measured three times on a different day without the use of antihypertensive drugs. Therefore, in this embodiment, the baseline blood pressure of the subjects before administration is set as the average blood pressure measured at three different times: screening period, occupancy period, and 1 hour before administration, as shown in Tables 1 to 3.\nIn the clinical trial of amantadine mononitrate compound MN-08, it is investigated the effect of MN-08 on blood pressure in subjects. The experiments were carried out to analyze the blood pressure status of subjects in both the single dose and multiple dose groups.\nDuring a single administration, each dose group is required to fast for at least 10 hours before administration, without water deprivation overnight, and on the day of administration, the medication is taken on an empty stomach at around 8 a.m., with 240 mL of water administered."}}, "data": [{"compound": "CCC12CC3CC(N)(C1)CC(CO[N+](=O)[O-])(C3)C2", "note": "(stereo not drawn) [MN-08]", "values": [{"measurement": "effect on diastolic pressure", "setting": "[1]", "result": "significant effect on reducing diastolic pressure"}, {"measurement": "diastolic pressure reduced by", "setting": "[2]; 6 mg single dose, at 6 hours", "result": 17.1, "unit": "%"}, {"measurement": "systolic pressure reduced by", "setting": "[2]; 6 mg single dose, at 6 hours", "result": 13.2, "unit": "%"}, {"measurement": "DP", "setting": "[2]; Subject 1, 12 mg single dose, 6 hrs after adm. (D 1), baseline 77 mmHg", "result": 64, "unit": "mmHg"}, {"measurement": "SP", "setting": "[2]; Subject 1, 12 mg single dose, 6 hrs after adm. (D 1), baseline 122 mmHg", "result": 104, "unit": "mmHg"}, {"measurement": "DP (reduce amplitude)", "setting": "[2]; Subject 1, 12 mg single dose, 6 hrs after adm. (D 1), vs baseline 77 mmHg", "result": "−16.9", "unit": "%"}, {"measurement": "SP (reduce amplitude)", "setting": "[2]; Subject 1, 12 mg single dose, 6 hrs after adm. (D 1), vs baseline 122 mmHg", "result": "−14.8", "unit": "%"}, {"measurement": "DP", "setting": "[2]; Subject 1, 12 mg single dose, 12 hrs after adm. (D 1), baseline 77 mmHg", "result": 60, "unit": "mmHg"}, {"measurement": "SP", "setting": "[2]; Subject 1, 12 mg single dose, 12 hrs after adm. (D 1), baseline 122 mmHg", "result": 109, "unit": "mmHg"}, {"measurement": "DP (reduce amplitude)", "setting": "[2]; Subject 1, 12 mg single dose, 12 hrs after adm. (D 1), vs baseline 77 mmHg", "result": "−22.1", "unit": "%"}, {"measurement": "SP (reduce amplitude)", "setting": "[2]; Subject 1, 12 mg single dose, 12 hrs after adm. (D 1), vs baseline 122 mmHg", "result": "−10.7", "unit": "%"}, {"measurement": "DP", "setting": "[2]; Subject 2, 42 mg single dose, 6 hrs after adm. (D 1), baseline 79 mmHg", "result": 63, "unit": "mmHg"}, {"measurement": "SP", "setting": "[2]; Subject 2, 42 mg single dose, 6 hrs after adm. (D 1), baseline 113 mmHg", "result": 96, "unit": "mmHg"}, {"measurement": "DP (reduce amplitude)", "setting": "[2]; Subject 2, 42 mg single dose, 6 hrs after adm. (D 1), vs baseline 79 mmHg", "result": "−20.3", "unit": "%"}, {"measurement": "SP (reduce amplitude)", "setting": "[2]; Subject 2, 42 mg single dose, 6 hrs after adm. (D 1), vs baseline 113 mmHg", "result": "−15.0", "unit": "%"}, {"measurement": "DP", "setting": "[2]; Subject 2, 42 mg single dose, 12 hrs after adm. (D 1), baseline 79 mmHg", "result": 69, "unit": "mmHg"}, {"measurement": "SP", "setting": "[2]; Subject 2, 42 mg single dose, 12 hrs after adm. (D 1), baseline 113 mmHg", "result": 96, "unit": "mmHg"}, {"measurement": "DP (reduce amplitude)", "setting": "[2]; Subject 2, 42 mg single dose, 12 hrs after adm. (D 1), vs baseline 79 mmHg", "result": "−12.7", "unit": "%"}, {"measurement": "SP (reduce amplitude)", "setting": "[2]; Subject 2, 42 mg single dose, 12 hrs after adm. (D 1), vs baseline 113 mmHg", "result": "−15.0", "unit": "%"}, {"measurement": "DP", "setting": "[2]; Subject 3, 42 mg single dose, 6 hrs after adm. (D 1), baseline 85 mmHg", "result": 72, "unit": "mmHg"}, {"measurement": "SP", "setting": "[2]; Subject 3, 42 mg single dose, 6 hrs after adm. (D 1), baseline 124 mmHg", "result": 118, "unit": "mmHg"}, {"measurement": "DP (reduce amplitude)", "setting": "[2]; Subject 3, 42 mg single dose, 6 hrs after adm. (D 1), vs baseline 85 mmHg", "result": "−15.3", "unit": "%"}, {"measurement": "SP (reduce amplitude)", "setting": "[2]; Subject 3, 42 mg single dose, 6 hrs after adm. (D 1), vs baseline 124 mmHg", "result": "−4.8", "unit": "%"}, {"measurement": "DP", "setting": "[2]; Subject 3, 42 mg single dose, 12 hrs after adm. (D 1), baseline 85 mmHg", "result": 61, "unit": "mmHg"}, {"measurement": "SP", "setting": "[2]; Subject 3, 42 mg single dose, 12 hrs after adm. (D 1), baseline 124 mmHg", "result": 98, "unit": "mmHg"}, {"measurement": "DP (reduce amplitude)", "setting": "[2]; Subject 3, 42 mg single dose, 12 hrs after adm. (D 1), vs baseline 85 mmHg", "result": "−28.2", "unit": "%"}, {"measurement": "SP (reduce amplitude)", "setting": "[2]; Subject 3, 42 mg single dose, 12 hrs after adm. (D 1), vs baseline 124 mmHg", "result": "−21.0", "unit": "%"}, {"measurement": "DP", "setting": "[2]; Subject 4, 60 mg single dose, 6 hrs after adm. (D 1), baseline 78 mmHg", "result": 58, "unit": "mmHg"}, {"measurement": "SP", "setting": "[2]; Subject 4, 60 mg single dose, 6 hrs after adm. (D 1), baseline 107 mmHg", "result": 93, "unit": "mmHg"}, {"measurement": "DP (reduce amplitude)", "setting": "[2]; Subject 4, 60 mg single dose, 6 hrs after adm. (D 1), vs baseline 78 mmHg", "result": "−25.6", "unit": "%"}, {"measurement": "SP (reduce amplitude)", "setting": "[2]; Subject 4, 60 mg single dose, 6 hrs after adm. (D 1), vs baseline 107 mmHg", "result": "−13.1", "unit": "%"}, {"measurement": "DP", "setting": "[2]; Subject 4, 60 mg single dose, 12 hrs after adm. (D 1), baseline 78 mmHg", "result": 58, "unit": "mmHg"}, {"measurement": "SP", "setting": "[2]; Subject 4, 60 mg single dose, 12 hrs after adm. (D 1), baseline 107 mmHg", "result": 90, "unit": "mmHg"}, {"measurement": "DP (reduce amplitude)", "setting": "[2]; Subject 4, 60 mg single dose, 12 hrs after adm. (D 1), vs baseline 78 mmHg", "result": "−25.6", "unit": "%"}, {"measurement": "SP (reduce amplitude)", "setting": "[2]; Subject 4, 60 mg single dose, 12 hrs after adm. (D 1), vs baseline 107 mmHg", "result": "−15.9", "unit": "%"}, {"measurement": "DP", "setting": "[2]; Subject 5, 60 mg single dose, 6 hrs after adm. (D 1), baseline 73 mmHg", "result": 62, "unit": "mmHg"}, {"measurement": "SP", "setting": "[2]; Subject 5, 60 mg single dose, 6 hrs after adm. (D 1), baseline 111 mmHg", "result": 93, "unit": "mmHg"}, {"measurement": "DP (reduce amplitude)", "setting": "[2]; Subject 5, 60 mg single dose, 6 hrs after adm. (D 1), vs baseline 73 mmHg", "result": "−15.1", "unit": "%"}, {"measurement": "SP (reduce amplitude)", "setting": "[2]; Subject 5, 60 mg single dose, 6 hrs after adm. (D 1), vs baseline 111 mmHg", "result": "−16.2", "unit": "%"}, {"measurement": "DP", "setting": "[2]; Subject 5, 60 mg single dose, 12 hrs after adm. (D 1), baseline 73 mmHg", "result": 61, "unit": "mmHg"}, {"measurement": "SP", "setting": "[2]; Subject 5, 60 mg single dose, 12 hrs after adm. (D 1), baseline 111 mmHg", "result": 95, "unit": "mmHg"}, {"measurement": "DP (reduce amplitude)", "setting": "[2]; Subject 5, 60 mg single dose, 12 hrs after adm. (D 1), vs baseline 73 mmHg", "result": "−16.4", "unit": "%"}, {"measurement": "SP (reduce amplitude)", "setting": "[2]; Subject 5, 60 mg single dose, 12 hrs after adm. (D 1), vs baseline 111 mmHg", "result": "−14.4", "unit": "%"}, {"measurement": "DP", "setting": "[2]; Subject 6, 78 mg single dose, 6 hrs after adm. (D 1), baseline 67 mmHg", "result": 61, "unit": "mmHg"}, {"measurement": "SP", "setting": "[2]; Subject 6, 78 mg single dose, 6 hrs after adm. (D 1), baseline 113 mmHg", "result": 103, "unit": "mmHg"}, {"measurement": "DP (reduce amplitude)", "setting": "[2]; Subject 6, 78 mg single dose, 6 hrs after adm. (D 1), vs baseline 67 mmHg", "result": "−9.0", "unit": "%"}, {"measurement": "SP (reduce amplitude)", "setting": "[2]; Subject 6, 78 mg single dose, 6 hrs after adm. (D 1), vs baseline 113 mmHg", "result": "−8.8", "unit": "%"}, {"measurement": "DP", "setting": "[2]; Subject 6, 78 mg single dose, 12 hrs after adm. (D 1), baseline 67 mmHg", "result": 54, "unit": "mmHg"}, {"measurement": "SP", "setting": "[2]; Subject 6, 78 mg single dose, 12 hrs after adm. (D 1), baseline 113 mmHg", "result": 104, "unit": "mmHg"}, {"measurement": "DP (reduce amplitude)", "setting": "[2]; Subject 6, 78 mg single dose, 12 hrs after adm. (D 1), vs baseline 67 mmHg", "result": "−19.4", "unit": "%"}, {"measurement": "SP (reduce amplitude)", "setting": "[2]; Subject 6, 78 mg single dose, 12 hrs after adm. (D 1), vs baseline 113 mmHg", "result": "−8.0", "unit": "%"}, {"measurement": "DP", "setting": "[2]; Subject 7, 78 mg single dose, 6 hrs after adm. (D 1), baseline 74 mmHg", "result": 62, "unit": "mmHg"}, {"measurement": "SP", "setting": "[2]; Subject 7, 78 mg single dose, 6 hrs after adm. (D 1), baseline 106 mmHg", "result": 94, "unit": "mmHg"}, {"measurement": "DP (reduce amplitude)", "setting": "[2]; Subject 7, 78 mg single dose, 6 hrs after adm. (D 1), vs baseline 74 mmHg", "result": "−16.2", "unit": "%"}]}]}
